Literature values in PMC4138103 (PLoS ONE, 2014).
pIC50: −log10 of the molar value.

Target: T1, human TTR (Homo sapiens, UniProt P02766)
T1 construct: purchased Sigma Aldrich
Details: ref Hamers et al. 2011, cited from earlier work

SMILES: Clc1cc(Cl)c(-c2cc(Cl)c(Cl)c(Cl)c2Cl)cc1Cl [PCB 180, 2,2′,3′,4,4′,5,5′-heptachlorobiphenyl]
- T4 displacement, Pilot experiment (@10000 nM): 27% T4 displacement @10000 nM
- pIC50 (TTR binding): < 4.82
